One may read the IC50 as the concentration that inhibits the measured activity by half. Higher therefore signals a need for much substance.

Experimental findings from patent US10988477B2 (Merck Patent GmbH, priority 2018, dated 2021) are described below.

Assay [1] deals with GCN2 kinase (Homo sapiens, UniProt Q9P2K8). The experiment in a line: GCN2 enzyme inhibition assay (Transcreener ADP2 fluorescence polarization). In kind it is biochemical. The note with it: 280 μM ATP. An outline of the steps: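 ADP formation read by Transcreener FP after a 1 h, 25 °C kinase reaction containing 280 μM ATP, 200 μM (RS)7 substrate and 4 nM GCN2, pH 7.5 Tris buffer. Compounds (0–8 μM final) were added 10 min before ATP. Percent inhibition gave IC50 and apparent Ki via tight-binding fit.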
On the technique in general: Fluorescence polarisation rises when a labelled molecule tumbles more slowly, as on binding a larger partner.

Assay [2] deals with intracellular GCN2 (phosphorylation of the GCN2 substrate eIF2α) (Homo sapiens, UniProt Q9P2K8). Briefly: GCN2 cellular inhibition assay (AlphaScreen SureFire P-eIF2α Ser51, borrelidin-treated U2OS cells). In kind it is cell-based. The note with it: biomarker assay, phosphorylated eIF2α Ser51 in borrelidin-treated U2OS cells. A digest of the protocol: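 Read-out: AlphaScreen SureFire phospho-eIF2α (Ser51) signal in U2OS lysates. Cells get 4-fold compound dilutions (top 40 μM final) plus 10 μM borrelidin, 1 h, 37 °C. Percent inhibition is relative to borrelidin-alone controls.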
On the technique in general: Bead proximity is the source of the signal in Alpha formats.

The mark [3] stands for this setting: compounds of Formula II, 4 nM GCN2 kinase.
[4] abbreviates: Enzyme activity for compounds of Formula IV, Ki(app), 25° C.

Chain of GCN2 kinase (Q9P2K8 whole entry): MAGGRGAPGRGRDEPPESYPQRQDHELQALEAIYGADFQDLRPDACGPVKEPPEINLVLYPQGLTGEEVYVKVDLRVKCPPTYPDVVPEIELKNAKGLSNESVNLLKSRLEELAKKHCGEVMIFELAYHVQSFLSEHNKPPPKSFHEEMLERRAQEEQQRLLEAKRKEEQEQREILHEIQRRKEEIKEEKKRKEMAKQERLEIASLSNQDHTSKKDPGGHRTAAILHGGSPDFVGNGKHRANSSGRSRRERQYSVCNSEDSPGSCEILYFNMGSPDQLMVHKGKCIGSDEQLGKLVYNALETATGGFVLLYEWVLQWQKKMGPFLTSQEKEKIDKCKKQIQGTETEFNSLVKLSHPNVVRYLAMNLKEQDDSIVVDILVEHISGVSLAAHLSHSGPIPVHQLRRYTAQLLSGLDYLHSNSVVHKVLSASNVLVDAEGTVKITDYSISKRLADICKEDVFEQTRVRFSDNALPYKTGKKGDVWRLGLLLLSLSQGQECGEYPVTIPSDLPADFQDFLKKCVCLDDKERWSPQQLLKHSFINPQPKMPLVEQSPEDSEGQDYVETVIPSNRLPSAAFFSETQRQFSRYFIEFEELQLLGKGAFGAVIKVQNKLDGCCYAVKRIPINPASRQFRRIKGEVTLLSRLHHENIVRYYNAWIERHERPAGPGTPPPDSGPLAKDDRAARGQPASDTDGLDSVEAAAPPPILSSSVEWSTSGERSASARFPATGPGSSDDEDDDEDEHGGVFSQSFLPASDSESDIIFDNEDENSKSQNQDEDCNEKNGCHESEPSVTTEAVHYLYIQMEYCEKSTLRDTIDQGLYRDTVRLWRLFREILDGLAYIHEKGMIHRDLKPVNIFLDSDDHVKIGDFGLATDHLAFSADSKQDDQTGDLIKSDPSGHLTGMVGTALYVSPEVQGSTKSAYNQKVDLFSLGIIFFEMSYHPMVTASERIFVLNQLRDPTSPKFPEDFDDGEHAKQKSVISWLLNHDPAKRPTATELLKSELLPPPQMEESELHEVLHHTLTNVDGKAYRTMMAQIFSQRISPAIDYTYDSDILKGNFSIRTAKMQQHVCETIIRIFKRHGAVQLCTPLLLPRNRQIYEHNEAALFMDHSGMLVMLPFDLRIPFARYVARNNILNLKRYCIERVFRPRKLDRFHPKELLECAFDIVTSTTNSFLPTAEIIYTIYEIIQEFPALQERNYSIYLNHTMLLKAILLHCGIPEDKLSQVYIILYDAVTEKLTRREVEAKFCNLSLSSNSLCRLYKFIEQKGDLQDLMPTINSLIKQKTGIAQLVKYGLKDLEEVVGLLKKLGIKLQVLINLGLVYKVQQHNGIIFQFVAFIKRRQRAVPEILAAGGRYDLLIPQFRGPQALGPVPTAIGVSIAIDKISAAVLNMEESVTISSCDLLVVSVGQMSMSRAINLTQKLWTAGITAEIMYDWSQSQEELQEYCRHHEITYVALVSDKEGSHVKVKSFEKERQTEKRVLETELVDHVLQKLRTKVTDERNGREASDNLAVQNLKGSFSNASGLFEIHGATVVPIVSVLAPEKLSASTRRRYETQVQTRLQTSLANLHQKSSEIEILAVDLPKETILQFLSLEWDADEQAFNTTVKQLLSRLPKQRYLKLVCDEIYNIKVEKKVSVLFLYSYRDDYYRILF
Chain of intracellular GCN2 (phosphorylation of the GCN2 substrate eIF2α) (Q9P2K8 whole entry): as above

For `CS(C)(=O)=N[C@H]1CCCN(c2cc(-c3cnc4ccc(C(F)F)nn34)ncn2)C1` (single isomer, unassigned) [II-502], the Ki in assay [1] (setting [3]) was 0.01 to 1 µM. Also, in assay [2] (compounds of Formula II), the IC50 was less than 0.5 µM.
`CS(C)(=O)=NC1CCCN(c2cc(-c3cnc4ccc(C(F)F)nn34)ncn2)C1` (single isomer, unassigned) [II-503, ((1-(6-(6-(Difluoromethyl)imidazo[1,2-b]pyridazin-3-yl)pyrimidin-4-yl)piperidin-3-yl)imino)dimethyl-λ^6-sulfanone] came in with a Ki in assay [1] (setting [3]) of 0.01 to 1 µM. In addition, the IC50 in assay [2] (compounds of Formula II) was 0.5 to 5 µM.
The matching figures for `C[C@H](NS(C)(=O)=O)[C@@H]1CN(c2cc(-c3cnc4ccc(C(F)F)nn34)ncn2)CCO1` (single isomer, unassigned) [II-509]: less than 0.01 µM and less than 0.5 µM.
For `CC(NS(C)(=O)=O)[C@@H]1CN(c2cc(-c3cnc4ccc(C(F)F)nn34)ncn2)CCO1` (single isomer, unassigned) [II-510], the Ki in assay [1] (setting [3]) was 0.01 to 1 µM. In assay [2] (compounds of Formula II), the IC50 was in the range of 0.5 to 5 µM.
`CS(=O)(=O)C1CCCN(c2cc(-c3cnc4ccc(C(F)F)nn34)ncn2)C1` (single isomer, unassigned) [II-529, 6-(Difluoromethyl)-3-(6-(3-(methylsulfonyl)piperidin-1-yl)pyrimidin-4-yl)imidazo[1,2-b]pyridazine]: the Ki in assay [1] (setting [3]) was 0.01 to 1 µM. The same molecule yielded an IC50 in assay [2] (compounds of Formula II) of 0.5 to 5 µM.
`CC1CC(N=S(C)(C)=O)CN(c2cc(-c3cnc4ccc(C(F)F)nn34)ncn2)C1` (single isomer, unassigned) [II-540, ((1-(6-(6-(Difluoromethyl)imidazo[1,2-b]pyridazin-3-yl)pyrimidin-4-yl)-5-methylpiperidin-3-yl)imino)dimethyl-λ^6-sulfanone]: the Ki in assay [1] (setting [3]) is 0.01 to 1 µM. In assay [2] (compounds of Formula II), this molecule had an IC50 of 0.5 to 5 µM.
For `C[C@@H]1CC(N=S(C)(C)=O)CN(c2cc(-c3cnc4ccc(C(F)F)nn34)ncn2)C1` (single isomer, unassigned) [II-541] the same measures were less than 0.01 µM and less than 0.5 µM.
`CCN1CCN(c2cc(-c3cnc4ccc(C(F)F)nn34)ncn2)C(C)C1CNS(C)(=O)=O` (single isomer, unassigned) [II-542, N-((4-(6-(6-(Difluoromethyl)imidazo[1,2-b]pyridazin-3-yl)pyrimidin-4-yl)-1-ethyl-3-methylpiperazin-2-yl)methyl)methanesulfonamide] registered a Ki in assay [1] (setting [3]) of less than 0.01 µM. Also, the IC50 in assay [2] (compounds of Formula II) is less than 0.5 µM.
In the case of `CCN1CCN(c2cc(-c3cnc4ccc(C(F)F)nn34)ncn2)C(C)C1CNS(C)(=O)=O` (single isomer, unassigned) [II-543, N-((4-(6-(6-(difluoromethyl)imidazo[1,2-b]pyridazin-3-yl)pyrimidin-4-yl)-1-ethyl-3-methylpiperazin-2-yl)methyl)methanesulfonamide], the Ki in assay [1] (setting [3]) lay in the range of 0.01 to 1 µM. In assay [2] (compounds of Formula II), this molecule registered an IC50 of 0.5 to 5 µM.
On to `CC1CC(CNS(C)(=O)=O)C(C)N(c2cc(-c3cnc4ccc(C(F)F)nn34)ncn2)C1` (single isomer, unassigned) [II-545, N-((1-(6-(6-(Difluoromethyl)imidazo[1,2-b]pyridazin-3-yl)pyrimidin-4-yl)-2,5-dimethylpiperidin-3-yl)methyl)methanesulfonamide], for which the Ki in assay [1] (setting [3]) was 0.01 to 1 µM. This molecule also showed an IC50 in assay [2] (compounds of Formula II) of 0.5 to 5 µM.
`CC1CC(CNS(C)(=O)=O)C(C)N(c2cc(-c3cnc4ccc(C(F)F)nn34)ncn2)C1` (single isomer, unassigned) [II-546, N-((1-(6-(6-(Difluoromethyl)imidazo[1,2-b]pyridazin-3-yl)pyrimidin-4-yl)-2,5-dimethylpiperidin-3-yl)methyl)methanesulfonamide]: in assay [1] (setting [3]), the Ki was less than 0.01 µM. In assay [2] (compounds of Formula II), this molecule had an IC50 of less than 0.5 µM.
For `C[C@H]1[C@@H](N=S(C)(C)=O)CCCN1c1cc(-c2cnc3ccc(C(F)F)nn23)ncn1` (single isomer, unassigned) [II-593] the same measures were less than 0.01 µM and less than 0.5 µM.
The matching figures for `C[C@@H]1C[C@H](N=S(C)(C)=O)[C@H](C)N(c2cc(-c3cnc4ccc(C(F)F)nn34)ncn2)C1` (single isomer, unassigned) [II-631]: less than 0.01 µM and less than 0.5 µM.
As for `CCC1CC(N=S(C)(C)=O)CN(c2cc(-c3cnc4ccc(C(F)F)nn34)ncn2)C1` (single isomer, unassigned) [II-650, ((1-(6-(6-(Difluoromethyl)imidazo[1,2-b]pyridazin-3-yl)pyrimidin-4-yl)-5-ethylpiperidin-3-yl)imino)dimethyl-λ^6-sulfanone], the Ki in assay [1] (setting [3]) is less than 0.01 µM. The same molecule returned an IC50 in assay [2] (compounds of Formula II) of less than 0.5 µM.
For `CC1CN(c2cc(-c3cnc4ccc(C(F)F)nn34)ncn2)C(C)C(c2cn[nH]c2)N1` (single isomer, unassigned) [II-652, 6-(Difluoromethyl)-3-(6-(2,5-dimethyl-3-(1H-pyrazol-4-yl)piperazin-1-yl)pyrimidin-4-yl)imidazo[1,2-b]pyridazine] the same measures were 0.01 to 1 µM and 0.5 to 5 µM.
The matching figures for `CC1CC(C(N)=O)C(C)N(c2cc(-c3cnc4ccc(C(F)(F)F)nn34)ncn2)C1` (single isomer, unassigned) [II-717, 2,5-Dimethyl-1-[6-[6-(trifluoromethyl)imidazo[1,2-b]pyridazin-3-yl]pyrimidin-4-yl]piperidine-3-carboxamide]: less than 0.01 µM and less than 0.5 µM.
For the molecule `CC1CC(N=S(C)(C)=O)CN(c2cc(-c3cnc4ccc(C(F)F)nn34)c(F)cn2)C1` (single isomer, unassigned) [II-723, ((1-(4-(6-(Difluoromethyl)imidazo[1,2-b]pyridazin-3-yl)-5-fluoropyridin-2-yl)-5-methylpiperidin-3-yl)imino)dimethyl-λ^6-sulfanone], the Ki in assay [1] (setting [3]) was in the range of 0.01 to 1 µM. The same molecule came in with an IC50 in assay [2] (compounds of Formula II) of 0.5 to 5 µM.
Turning to `FC(F)(F)c1cn2c(-c3nccc(N4CCOC(c5cn[nH]c5)C4)n3)cnc2cn1` (single isomer, unassigned) [IV-7, 2-(1H-Pyrazol-4-yl)-4-(2-(6-(trifluoromethyl)imidazo[1,2-a]pyrazin-3-yl)pyrimidin-4-yl)morpholine], the Ki in assay [1] (setting [4]) fell in the range of 0.01 to 0.1 µM. For the same molecule, the IC50 in assay [2] (compounds of Formula IV) was in the range of 0.5 to 5 µM.
The molecule `FC(F)(F)c1cn2c(-c3nccc(N4CCOC(c5cn[nH]c5)C4)n3)cnc2cn1` (single isomer, unassigned) [IV-8, 2-(1H-Pyrazol-4-yl)-4-(2-(6-(trifluoromethyl)imidazo[1,2-a]pyrazin-3-yl)pyrimidin-4-yl)morpholine] showed a Ki in assay [1] (setting [4]) of less than 0.01 µM. In assay [2] (compounds of Formula IV), this molecule registered an IC50 of 0.5 to 5 µM.
The matching figures for `CC1C(c2cn[nH]c2)OCCN1c1ccnc(-c2cnc3cnc(Cl)cn23)n1` (single isomer, unassigned) [IV-9, 4-(2-(6-Chloroimidazo[1,2-a]pyrazin-3-yl)pyrimidin-4-yl)-3-methyl-2-(1H-pyrazol-4-yl)morpholine]: less than 0.01 µM and less than 0.5 µM.
`CC1CN(c2ccnc(-c3cnc4cnc(C(F)(F)F)cn34)n2)CC(c2cn[nH]c2)O1` (single isomer, unassigned) [IV-13, 2-Methyl-6-(1H-pyrazol-4-yl)-4-(2-(6-(trifluoromethyl)imidazo[1,2-a]pyrazin-3-yl)pyrimidin-4-yl)morpholine] had a Ki in assay [1] (setting [4]) of 0.01 to 0.1 µM. In addition, in assay [2] (compounds of Formula IV), the IC50 was less than 0.5 µM.
For the molecule `CC1CN(c2ccnc(-c3cnc4cnc(C(F)(F)F)cn34)n2)CC(c2cn[nH]c2)O1` (single isomer, unassigned) [IV-14, 2-Methyl-6-(1H-pyrazol-4-yl)-4-(2-(6-(trifluoromethyl)imidazo[1,2-a]pyrazin-3-yl)pyrimidin-4-yl)morpholine], the Ki in assay [1] (setting [4]) was less than 0.01 µM. In addition, in assay [2] (compounds of Formula IV), the IC50 is less than 0.5 µM.
In assay [1] (setting [4]), `CC1CN(c2ccnc(-c3cnc4cnc(C(F)(F)F)cn34)n2)CC(c2cn[nH]c2)O1` (single isomer, unassigned) [IV-15, 2-Methyl-6-(1H-pyrazol-4-yl)-4-(2-(6-(trifluoromethyl)imidazo[1,2-a]pyrazin-3-yl)pyrimidin-4-yl)morpholine] yielded a Ki of 0.01 to 0.1 µM. This molecule registered an IC50 in assay [2] (compounds of Formula IV) of 0.5 to 5 µM.
For `CC1CN(c2ccnc(-c3cnc4cnc(C(F)(F)F)cn34)n2)CC(c2cn[nH]c2)O1` (single isomer, unassigned) [IV-16, 2-Methyl-6-(1H-pyrazol-4-yl)-4-(2-(6-(trifluoromethyl)imidazo[1,2-a]pyrazin-3-yl)pyrimidin-4-yl)morpholine] the same measures were 0.01 to 0.1 µM and 0.5 to 5 µM.
In assay [1] (setting [4]), `CC1CN(c2ccnc(-c3cnc4cnc(C#N)cn34)n2)CC(c2cn[nH]c2)O1` (single isomer, unassigned) [IV-191, 3-(4-(2-Methyl-6-(1H-pyrazol-4-yl)morpholino)pyrimidin-2-yl)imidazo[1,2-a]pyrazine-6-carbonitrile] returned a Ki of 0.01 to 0.1 µM. This molecule also had a half-inhibitory concentration (IC50) in assay [2] (compounds of Formula IV) of 0.5 to 5 µM.
The matching figures for `CC1CN(c2ccnc(-c3cnc4cnc(Cl)cn34)n2)CC(c2cn[nH]c2)O1` (single isomer, unassigned) [IV-192, 4-(2-(6-Chloroimidazo[1,2-a]pyrazin-3-yl)pyrimidin-4-yl)-2-methyl-6-(1H-pyrazol-4-yl)morpholine]: less than 0.01 µM and 0.5 to 5 µM.
The matching figures for `CC1CN(c2nccc(-c3cnc4cnc(C(F)(F)F)cn34)n2)CC(c2cn[nH]c2)O1` (single isomer, unassigned) [IV-199, 2-Methyl-6-(1H-pyrazol-4-yl)-4-(4-(6-(trifluoromethyl)imidazo[1,2-a]pyrazin-3-yl)pyrimidin-2-yl)morpholine]: 0.01 to 0.1 µM and 0.5 to 5 µM.
